Data: patent US9969687B2, “Compounds useful as CCR9 modulators” (Norgine B.V., priority 2013, dated 2018)

biological target: CCR9 (Homo sapiens (Human), UniProt P51686); test: FLIPR calcium flux assay using MOLT4 cells, TECK stimulation; assay type: cell-based; settings: MOLT4 cells (human T-cell line)
Method: Biological Activity: FLIPR Assay Using MOLT4 Cells
A calcium flux assay was used to determine the ability of the compounds to interfere with the binding between CCR9 and its chemokine ligand (TECK) in MOLT4 cells (a human T-cell line). MOLT4 cells were seeded (100,000 cells/well) in corning cell culture plates (Cat #3603) in assay buffer (1×HBSS, 20 mM HEPES) containing 2.5 mM Probenecid. The plate was centrifuged at 1200 rpm for 3 minutes and incubated at 37° C./5% CO2 for 2 hours. A 0.3× Fluo-4 NW calcium dye was prepared in assay buffer containing 5 mM Probenecid and stored in the dark. Each well was loaded with 25 μl of 0.3× Fluo-4 NW calcium dye and incubated at 37° C./5% CO2 for 60 minutes and then at room temperature for 30 minutes. A half-log serially diluted concentration response curve was prepared at a 4× concentration for each (10 μM-0.1 nM final assay concentration) and 25 μL of the compound then transferred to the cells (100 μL final volume) for 60 minutes prior to stimulation (30 minutes at 37° C./5% CO2 and 30 minutes at room temperature). […] The increased in intracellular calcium levels was measured with the FLIPR instrument. The potency of the compound as CCR9 antagonist was calculated as an IC50 using GraphPad Prism software (variable slope four parameter). The Ki of the compound was determined from the IC50 values using the following equation. IC50/1+(Agonist (TECK) conc. used in assay/EC50 of agonist (TECK) generated on day of experiment) Ki calculation: […]

Sequence of CCR9 (P51686 whole entry): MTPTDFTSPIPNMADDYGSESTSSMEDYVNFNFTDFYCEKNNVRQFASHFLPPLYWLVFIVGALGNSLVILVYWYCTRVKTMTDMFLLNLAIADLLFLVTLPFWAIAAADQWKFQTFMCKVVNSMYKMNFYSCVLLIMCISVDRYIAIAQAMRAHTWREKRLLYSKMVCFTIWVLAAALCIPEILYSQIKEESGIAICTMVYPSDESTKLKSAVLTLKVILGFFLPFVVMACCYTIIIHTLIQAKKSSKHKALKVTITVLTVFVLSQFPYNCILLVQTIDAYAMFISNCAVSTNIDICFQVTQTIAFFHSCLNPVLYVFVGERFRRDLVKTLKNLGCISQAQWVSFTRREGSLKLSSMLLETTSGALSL

| SMILES | Ki |
| --- | --- |
| O=C1c2cccc(NS(=O)(=O)c3cccc(C(F)(F)F)c3)c2C(=O)N1c1cccnc1 [Compound 4] | 2.71 µM |
| O=C1c2cccc(NS(=O)(=O)c3ccc(OC(F)(F)F)cc3)c2C(=O)N1c1cccnc1 [Compound 5] | 0.123 µM |
| O=C1c2cccc(NS(=O)(=O)c3ccc(Cl)c(C(F)(F)F)c3)c2C(=O)N1c1cccnc1 [Compound 7] | 0.206 µM |
| O=C1c2cccc(NS(=O)(=O)c3ccc(F)c(C(F)(F)F)c3)c2C(=O)N1c1cccnc1 [Compound 8] | 1.32 µM |
| O=C1c2cccc(NS(=O)(=O)c3ccc(C(F)(F)F)cc3)c2C(=O)N1Cc1cccnc1 [Compound 19] | 0.758 µM |
| N#Cc1cccc(N2C(=O)c3cccc(NS(=O)(=O)c4ccc(OC(F)(F)F)cc4)c3C2=O)c1 [Compound 40] | 1.36 µM |
| N#Cc1cccc(N2C(=O)c3cccc(NS(=O)(=O)c4ccc(Cl)c(C(F)(F)F)c4)c3C2=O)c1 [Compound 41] | 0.167 µM |
| O=C1c2c(Cl)ccc(NS(=O)(=O)c3ccc(Cl)c(C(F)(F)F)c3)c2C(=O)N1c1cccnc1 [Compound 48] | 0.171 µM |
| O=C1c2c(Cl)ccc(NS(=O)(=O)c3ccc(OC(F)F)cc3)c2C(=O)N1c1cccnc1 [Compound 52] | 0.187 µM |
| CC(C)c1ccc(S(=O)(=O)Nc2ccc(Cl)c3c2C(=O)N(c2cccnc2)C3=O)cc1 [Compound 57] | 0.038 µM |
| COc1cncc(N2C(=O)c3c(Cl)ccc(NS(=O)(=O)c4ccc(C(F)(F)F)cc4)c3C2=O)c1 [Compound 92] | 0.255 µM |
| COc1cncc(N2C(=O)c3c(Cl)ccc(NS(=O)(=O)c4ccc(Cl)c(C(F)(F)F)c4)c3C2=O)c1 [Compound 93] | 0.217 µM |
| COc1cncc(N2C(=O)c3c(Cl)ccc(NS(=O)(=O)c4ccc(OC(F)(F)F)cc4)c3C2=O)c1 [Compound 94] | 0.244 µM |
| Cc1cncc(N2C(=O)c3c(Cl)ccc(NS(=O)(=O)c4ccc(C(C)C)cc4)c3C2=O)c1 [Compound 105] | 0.311 µM |
| O=C1c2c(Cl)ccc(NS(=O)(=O)c3ccc(C(F)(F)F)cc3)c2C(=O)N1c1cncnc1 [Compound 140] | 0.216 µM |
| Cn1cc(N2C(=O)c3c(Cl)ccc(NS(=O)(=O)c4ccc(C(F)(F)F)cc4)c3C2=O)cn1 [Compound 143] | 0.064 µM |
| CC(C)c1ccc(S(=O)(=O)Nc2ccc(Cl)c3c2C(=O)N(c2cn[nH]c2)C3=O)cc1 [Compound 151] | 0.042 µM |
| O=C1c2c(Cl)ccc(NS(=O)(=O)c3ccc(OC(F)F)cc3)c2C(=O)N1c1cn[nH]c1 [Compound 152] | 0.245 µM |
| Cn1cnc(N2C(=O)c3c(Cl)ccc(NS(=O)(=O)c4ccc(C(F)(F)F)cc4)c3C2=O)c1 [Compound 154] | 0.032 µM |

Further lines, results first:

| Ki | SMILES |
| --- | --- |
| 1.55 µM | CC(C)(C)c1cccc(S(=O)(=O)Nc2cccc3c2C(=O)N(Cc2cccnc2)C3=O)c1 [Compound 14] |
| 1.21 µM | CC(C)(C)c1ccc(S(=O)(=O)Nc2cccc3c2C(=O)N(c2ccc(C#N)cc2)C3=O)cc1 [Compound 36] |
| 0.611 µM | N#Cc1cccc(N2C(=O)c3cccc(NS(=O)(=O)c4ccc(C(F)(F)F)cc4)c3C2=O)c1 [Compound 39] |
| 0.033 µM | CC(C)(C#N)c1ccc(S(=O)(=O)Nc2ccc(Cl)c3c2C(=O)N(Cc2cccnc2)C3=O)cc1 [Compound 79] |
| 0.173 µM | CC(C)c1ccc(S(=O)(=O)Nc2ccc(Cl)c3c2C(=O)N(Cc2cccnc2)C3=O)cc1 [Compound 80] |
| 0.148 µM | CC(C)(C#N)c1ccc(S(=O)(=O)Nc2ccc(Cl)c3c2C(=O)N(Cc2ccc[n+]([O-])c2)C3=O)cc1 [Compound 81] |
| 0.05 µM | COc1cc(N2C(=O)c3c(Cl)ccc(NS(=O)(=O)c4ccc(C(C)(C)C)cc4)c3C2=O)c[n+]([O-])c1 [Compound 91, 3-(4-(4-(tert-butyl)phenylsulfonamido)-7-chloro-1,3-dioxoisoindolin-2-yl)-5-methoxypyridine 1-oxide] |
| 0.318 µM | CC(C)(C)c1ccc(S(=O)(=O)Nc2ccc(Cl)c3c2C(=O)N(C(C)(C)c2cccnc2)C3=O)cc1 [Compound 107, 4-(tert-butyl)-N-(7-chloro-1,3-dioxo-2-(2-(pyridin-3-yl)propan-2-yl)isoindolin-4-yl)benzenesulfonamide] |
| 0.1 µM | CC(C)(C)c1ccc(S(=O)(=O)Nc2ccc(Cl)c3c2C(=O)N(CCc2cccnc2)C3=O)cc1 [Compound 116, 4-(tert-butyl)-N-(7-chloro-1,3-dioxo-2-(2-(pyridin-3-yl)ethyl)isoindolin-4-yl)benzenesulfonamide] |
| 0.184 µM | CC(C)(C)c1ccc(S(=O)(=O)Nc2ccc(Cl)c3c2C(=O)N(CCc2ccc[n+]([O-])c2)C3=O)cc1 [Compound 117, 3-(2-(4-(4-(tert-butyl)phenylsulfonamido)-7-chloro-1,3-dioxoisoindolin-2-yl)ethyl)pyridine 1-oxide] |
| 0.078 µM | COc1ccc(N2C(=O)c3c(Cl)ccc(NS(=O)(=O)c4ccc(C(C)(C)C)cc4)c3C2=O)cn1 [Compound 118, 4-(tert-butyl)-N-(7-chloro-2-(6-methoxypyridin-3-yl)-1,3-dioxoisoindolin-4-yl)benzenesulfonamide] |
| 0.175 µM | N#Cc1cccc(N2C(=O)c3c(Cl)ccc(NS(=O)(=O)c4ccc(OC(F)(F)F)cc4)c3C2=O)c1 [Compound 122] |
| 0.224 µM | N#Cc1cccc(N2C(=O)c3c(Cl)ccc(NS(=O)(=O)c4ccc(OC(F)F)cc4)c3C2=O)c1 [Compound 124] |
| 0.243 µM | CC(C)c1ccc(S(=O)(=O)Nc2ccc(Cl)c3c2C(=O)N(c2cccc(C#N)c2)C3=O)cc1 [Compound 125] |
| 0.153 µM | CC(C)(C)c1ccc(S(=O)(=O)Nc2ccc(C#N)c3c2C(=O)N(Cc2cccc(C#N)c2)C3=O)cc1 [Compound 127, 4-(tert-butyl)-N-(7-cyano-2-(3-cyanobenzyl)-1,3-dioxoisoindolin-4-yl)benzenesulfonamide] |
| 0.252 µM | N#Cc1cccc(CN2C(=O)c3c(Cl)ccc(NS(=O)(=O)c4ccc(Cl)c(C(F)(F)F)c4)c3C2=O)c1 [Compound 132] |
| 0.041 µM | Cn1cc(N2C(=O)c3c(Cl)ccc(NS(=O)(=O)c4ccc(C(C)(C)C)cc4)c3C2=O)cn1 [Compound 142] |
| 0.154 µM | CC(C)(C)c1ccc(S(=O)(=O)Nc2ccc(Cl)c3c2C(=O)N(c2nccs2)C3=O)cc1 [Compound 146] |
| 0.189 µM | Cc1ccc(NS(=O)(=O)c2ccc(C(C)(C)C)cc2)c2c1C(=O)N(c1cccnc1)C2=O [Compound 157, 4-(tert-butyl)-N-(7-methyl-1,3-dioxo-2-(pyridin-3-yl)isoindolin-4-yl)benzenesulfonamide] |
| 0.568 µM | Cc1ccc(NS(=O)(=O)c2ccc(C(F)(F)F)cc2)c2c1C(=O)N(Cc1cccnc1)C2=O [Compound 161] |
| 1 µM | Cc1ccc(NS(=O)(=O)c2ccc(OC(F)(F)F)cc2)c2c1C(=O)N(Cc1cccnc1)C2=O [Compound 162] |
| 0.073 µM | CC(C)(C)c1ccc(S(=O)(=O)Nc2ccc(Cl)c3c2C(=O)N(c2cncc(C#N)c2)C3=O)cc1 [Compound 177] |
| 0.164 µM | CC(C)(C)c1ccc(S(=O)(=O)Nc2ccc(Cl)c3c2C(=O)N(c2cncs2)C3=O)cc1 [Compound 178] |
| 0.078 µM | COc1ccc(N2C(=O)c3c(Cl)ccc(NS(=O)(=O)c4ccc(C(C)(C)C)cc4)c3C2=O)c[n+]1[O-] [Compound 180] |
| 0.033 µM | CC(C)(C)c1ccc(S(=O)(=O)Nc2ccc(Cl)c3c2C(=O)N(c2ccc(F)nc2)C3=O)cc1 [Compound 187] |
| 0.046 µM | Cc1ccc(N2C(=O)c3c(Cl)ccc(NS(=O)(=O)c4ccc(C(C)(C)C)cc4)c3C2=O)c[n+]1[O-] [Compound 205] |
